In brackets after ≈: the same amount, converted by molar mass. Where two headings read alike, the source gives them in different places.
Experiments:
[1] = test system: acetic acid-induced stress mice; test: Chemical induced stress (acetic acid model, writhes); format: in vivo, Balb/C mice
Description: The anti-stress effect of synthesized flavonoids was screened for chemical-induced stress using the acetic acid model. Animals were randomly assigned into two groups of 8. The control group received Tween 80 (2%). […] The treatments in all groups were given persistently for a period of 15 days.

mice [2] = test: Swimming endurance test; format: in vivo, Balb/C mice; details: flavonoids 10 mg/kg, standard diazepam 2 mg/kg IP, 15 days; recorded for 30 min; mean ± SEM, n = 8
Description: Animals were divided at random into two groups of 8. Tween 80 (2%) was given to the control group, while animals in each group were treated with 10 mg/kg of each flavonoid. […] All the doses were given constantly for 15 days. On 15th day, one hour after the dose administration, all the animals were allowed to swim in isolation in a glass tank. The time of immobility for each animal was recorded for a period of 30 min [26, 27].

mice [3] = test: Restraint stress, organ weights; format: in vivo, Balb/C mice; details: restraint stress 2 h; flavonoids 10 mg/kg p.o., standard diazepam 2 mg/kg IP, 15 days; mean ± SEM
Description: (§1) The adhesive tape was removed, and blood samples were collected. After blood collection, the animals were sacrificed, and the brain and vital organs were isolated and weighed.

mice [4] = test: Biochemical parameters in blood after restraint stress; format: in vivo, Balb/C mice; details: flavonoids 10 mg/kg, standard diazepam 2 mg/kg, 15 days, mean ± SEM
Description: as §1
After restrain test, blood samples were collected for the assessment of blood glucose, triglycerides and total cholesterol levels, using available commercial kits. […]

mice [5] = test: Biochemical parameters in brain after restraint stress; format: in vivo, Balb/C mice; details: flavonoids 10 mg/kg, standard diazepam 2 mg/kg, 15 days, mean ± SEM
[6] = DPPH free radical scavenging assay; format: biochemical; details: concentration range 6.25–50 μg/mL, absorbance 517 nm
Description: Scavenging activities for DPPH and ABTS were calculated and the IC50 was determined.

[7] = Mus musculus, ip, 360 h; read-out: Antistress Response (%)
[8] = flavonoids 10 mg/kg, standard diazepam 2 mg/kg IP, 15 days; acetic acid i.p. 0.1 mL (6% v/v), writhes within 20 min; mean ± SEM, n = 8
[9] = Mus musculus, ip, 360 h, read-out: Antistress Response (%)

Structure (SMILES)	inhibition in vivo at 10 mg/kg [1, 7] [%]	Immobility Time (mice [2]) [min]	Weight of Adrenal Gland (mice [3])	Weight of Brain (mice [3]) [mg]	Weight of Spleen (mice [3]) [mg]	Glucose (blood) (mice [4])	TGs (blood triglycerides) (mice [4])	Total Ch (blood total cholesterol) (mice [4])	Catalase (brain) (mice [5]) [IU/dL]	SOD (brain) (mice [5]) [IU/dL]	TBARS (brain lipid peroxidation) (mice [5]) [nmol/g]	IC50, scavenging against DPPH [6] [µg/mL]	Number of Writhes [1, 8]	inhibition in vivo at 10 mg/kg [1, 9] [%]	Immobility Time (Min) (mice [2])
Cc1ccc(-c2cc(=O)c3ccccc3o2)cc1 [F2]	72.3	3.12 ± 0.38	7.63 ± 1.11 mg	401.6 ± 3.11	180.4 ± 2.38	99.23 ± 1.69	45.09 ± 0.67	78.61 ± 0.78	18.21 ± 0.61	8.77 ± 0.59	18.72 ± 0.62	–	–	–	–
O=c1cc(-c2ccc(C(F)(F)F)cc2)oc2ccccc12 [F6]	64.1	3.41 ± 0.23	8.09 ± 1.77 mg	408.3 ± 2.60	171.1 ± 2.40	102.09 ± 1.62	47.26 ± 0.44	82.01 ± 0.79	17.36 ± 0.62	8.13 ± 0.51	18.96 ± 0.60	174.24 ± 2.71 (≈ 600 µM)	17.01 ± 1.89	–	–
O=c1c(O)c(-c2ccc(C(F)(F)F)cc2)oc2ccccc12 [OF6]	–	3.34 ± 0.25	8.11 ± 1.31 mg	403.9 ± 2.239	179.1 ± 2.30	100.32 ± 1.29	44.02 ± 0.30	77.02 ± 0.97	17.01 ± 0.52	8.03 ± 0.49	18.10 ± 0.51	122.33 ± 1.98 (≈ 399 µM)	15.88 ± 2.11	66.5	–
CN1C(=O)CN=C(c2ccccc2)c2cc(Cl)ccc21 [Standard, Diazepam, reference compound]	–	–	10.58 ± 5.77 ^ns mg	–	158.3 ± 2.89	108.2 ± 1.06 mg/dL	38.52 ± 0.57	75.62 ± 0.65	–	–	–	–	–	–	reduced the immobility time to a significant level
O=c1cc(-c2ccccc2)oc2ccccc12 [F1]	58.9	4.05 ± 0.45	8.13 ± 1.69 mg	398.1 ± 2.57	171.5 ± 2.71	105 ± 2.15 mg/dL	54.39 ± 0.87	81.33 ± 0.61	16.33 ± 0.69	7.96 ± 0.60	19.42 ± 0.51	–	19.45 ± 1.89	–	–
CN(C)c1ccc(-c2cc(=O)c3ccccc3o2)cc1 [F5]	64.6	3.64 ± 0.21	8.12 ± 1.81 mg	412.7 ± 2.81	170.3 ± 2.61	101.33 ± 1.72	46.72 ± 0.51	81.82 ± 0.85	17.11 ± 0.51	8.04 ± 0.57	19.02 ± 0.71	–	16.31 ± 2.58	–	–
O=c1c(O)c(-c2ccc(Cl)cc2)oc2ccccc12 [OF4]	–	3.44 ± 0.25	7.91 ± 1.91 mg	401.8 ± 2.34	183.9 ± 2.56	101.15 ± 1.66	46.92 ± 0.44	78.33 ± 0.76	17.45 ± 0.66	8.35 ± 0.64	18.67 ± 0.76	–	14.18 ± 2.17	67.1	–
Cc1ccc(-c2oc3ccccc3c(=O)c2O)cc1 [OF2]	74.3	2.95 ± 0.37	7.21 ± 1.87 mg	414.2 ± 2.51	190.5 ± 2.76	97.56 ± 1.61	42.88 ± 0.41	76.82 ± 0.86	18.74 ± 0.67	9.02 ± 0.54	17.74 ± 0.56	–	–	–	–
COc1ccc(-c2oc3ccccc3c(=O)c2O)cc1 [OF3]	80.9	2.33 ± 0.28	6.79 ± 1.10 mg	413.6 ± 2.66	194.8 ± 2.11	97.06 ± 1.71	43.11 ± 0.36	76.09 ± 0.64	19.02 ± 0.77	9.58 ± 0.66	17.49 ± 0.61	25.54 ± 1.21 (≈ 95.2 µM)	–	–	–
O=c1c(O)c(-c2ccccc2)oc2ccccc12 [OF1]	63.4	4.32 ± 0.31	8.09 ± 1.34 mg	397.4 ± 3.76	188.4 ± 2.24	105 ± 1.77 mg/dL	51.22 ± 0.66	80.81 ± 0.72	17.02 ± 0.71	8.46 ± 0.76	19.25 ± 0.51	–	17.32 ± 2.33	–	–
CN(C)c1ccc(-c2oc3ccccc3c(=O)c2O)cc1 [OF5]	63.3	3.25 ± 0.29	8.04 ± 1.18 mg	400.5 ± 2.21	186.3 ± 2.74	101.09 ± 1.14	46.24 ± 0.39	77.91 ± 0.97	17.06 ± 0.61	8.11 ± 0.51	18.56 ± 0.51	–	16.44 ± 3.04	–	–
COc1ccc(-c2cc(=O)c3ccccc3o2)cc1 [F3]	74.4	2.88 ± 0.26	7.22 ± 1.51 mg	411.3 ± 2.93	181.7 ± 2.06	98.45 ± 1.51	44.69 ± 0.37	78.43 ± 0.93	18.92 ± 0.51	9.42 ± 0.87	18.44 ± 0.63	–	–	–	–
O=c1cc(-c2ccc(Cl)cc2)oc2ccccc12 [F4]	–	3.21 ± 0.19	8.03 ± 1.98 mg	402.4 ± 3.19	173.1 ± 2.66	100.92 ± 1.91	47.51 ± 0.38	80.76 ± 0.91	17.88 ± 0.59	9.31 ± 0.78	19.09 ± 0.49	–	16.21 ± 2.09	65.8	–

Reference: publication PMC8879959, “In Vivo Antistress Effects of Synthetic Flavonoids in Mice: Behavioral and Biochemical Approach” (Molecules, 2022)
